In ChEMBL document CHEMBL1201862, “PubChem BioAssay data set” (2004):
The source made the active and inactive calls.

Columns and labels:
[1] = biological target: T1, fMet-Leu-Phe receptor (Homo sapiens, UniProt P21462); assay: FPR ligands, dose response (AID 519); type: functional
T1 sequence (P21462 whole entry): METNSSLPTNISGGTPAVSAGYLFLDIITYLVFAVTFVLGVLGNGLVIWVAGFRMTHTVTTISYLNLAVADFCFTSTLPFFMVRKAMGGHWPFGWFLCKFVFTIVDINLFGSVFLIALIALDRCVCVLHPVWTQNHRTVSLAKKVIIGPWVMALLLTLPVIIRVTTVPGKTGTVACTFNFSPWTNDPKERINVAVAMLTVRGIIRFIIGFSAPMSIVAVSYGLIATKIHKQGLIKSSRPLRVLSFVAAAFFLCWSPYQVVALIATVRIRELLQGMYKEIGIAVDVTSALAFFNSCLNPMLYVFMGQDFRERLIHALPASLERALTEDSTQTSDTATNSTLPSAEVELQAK

[2] = biological target: Cytochrome P450 2C9 (Homo sapiens, UniProt P11712)
Cytochrome P450 2C9, sequence (P11712 whole entry): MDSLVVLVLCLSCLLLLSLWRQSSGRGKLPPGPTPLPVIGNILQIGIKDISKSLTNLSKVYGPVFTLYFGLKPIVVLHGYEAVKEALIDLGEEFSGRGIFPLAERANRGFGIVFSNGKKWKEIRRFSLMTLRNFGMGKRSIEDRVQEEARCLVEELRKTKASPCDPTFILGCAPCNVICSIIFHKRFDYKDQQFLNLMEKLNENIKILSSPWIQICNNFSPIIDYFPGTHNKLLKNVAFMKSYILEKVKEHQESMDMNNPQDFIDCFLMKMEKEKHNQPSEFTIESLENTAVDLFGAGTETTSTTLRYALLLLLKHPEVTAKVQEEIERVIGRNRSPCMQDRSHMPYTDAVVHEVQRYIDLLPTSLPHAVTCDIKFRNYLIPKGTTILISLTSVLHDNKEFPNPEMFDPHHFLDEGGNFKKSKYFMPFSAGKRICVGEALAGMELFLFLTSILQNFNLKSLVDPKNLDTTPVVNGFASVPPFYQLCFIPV

[3] = biological target: Cytochrome P450 2C19 (Homo sapiens, UniProt P33261); assay: Cytochrome panel assay with activity outcomes. Panel member name: p450-cyp2c19 Compounds with AC50 equal or less than 10 uM are considered active; type: functional; details: read-out: AC50
Cytochrome P450 2C19, sequence (P33261 whole entry): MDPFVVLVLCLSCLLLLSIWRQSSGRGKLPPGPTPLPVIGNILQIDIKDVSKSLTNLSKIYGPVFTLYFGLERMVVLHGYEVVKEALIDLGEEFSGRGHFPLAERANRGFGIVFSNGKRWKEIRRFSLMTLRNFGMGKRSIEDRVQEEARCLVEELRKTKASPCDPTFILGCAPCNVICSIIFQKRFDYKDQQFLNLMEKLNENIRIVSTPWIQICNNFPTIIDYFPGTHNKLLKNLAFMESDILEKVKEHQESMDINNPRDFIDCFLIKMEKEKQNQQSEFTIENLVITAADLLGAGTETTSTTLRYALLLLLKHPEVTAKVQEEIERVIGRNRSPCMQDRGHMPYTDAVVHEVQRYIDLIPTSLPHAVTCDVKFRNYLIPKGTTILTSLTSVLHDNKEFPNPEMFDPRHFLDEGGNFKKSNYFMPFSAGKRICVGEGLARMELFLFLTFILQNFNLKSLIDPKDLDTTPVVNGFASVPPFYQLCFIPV

[4] = biological target: T2, Corticotropin-releasing factor receptor 2/Corticotropin-releasing factor-binding protein (Homo sapiens, UniProt P24387+Q13324); assay: activators of CRF receptor 2 with binding protein – uHTS hits, confirmation (AID 602473); type: functional; details: read-out: EC50_Mean
T2 sequence (Q13324 whole entry): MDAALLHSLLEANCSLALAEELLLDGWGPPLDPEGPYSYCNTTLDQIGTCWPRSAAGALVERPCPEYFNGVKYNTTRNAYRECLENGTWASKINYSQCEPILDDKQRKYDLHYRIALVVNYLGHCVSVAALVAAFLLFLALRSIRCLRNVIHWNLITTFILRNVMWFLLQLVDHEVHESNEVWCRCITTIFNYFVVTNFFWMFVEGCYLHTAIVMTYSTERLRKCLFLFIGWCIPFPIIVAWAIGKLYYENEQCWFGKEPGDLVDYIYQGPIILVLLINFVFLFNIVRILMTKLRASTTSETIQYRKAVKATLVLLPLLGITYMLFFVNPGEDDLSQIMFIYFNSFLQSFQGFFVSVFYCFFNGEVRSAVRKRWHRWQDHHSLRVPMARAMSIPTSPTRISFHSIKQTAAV
T2 sequence (P24387 whole entry): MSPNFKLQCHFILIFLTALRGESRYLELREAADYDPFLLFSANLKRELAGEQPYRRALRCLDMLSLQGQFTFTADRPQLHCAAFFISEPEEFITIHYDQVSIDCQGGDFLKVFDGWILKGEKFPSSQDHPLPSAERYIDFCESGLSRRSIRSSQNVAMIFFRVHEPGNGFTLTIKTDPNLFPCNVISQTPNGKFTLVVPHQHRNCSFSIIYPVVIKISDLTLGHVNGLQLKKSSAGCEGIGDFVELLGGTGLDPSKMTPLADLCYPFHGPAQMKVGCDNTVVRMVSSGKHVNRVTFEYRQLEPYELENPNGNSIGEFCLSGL

[5] = biological target: T2, Corticotropin-releasing factor receptor 2/Corticotropin-releasing factor-binding protein; assay: Dose Response confirmation of uHTS hits for small molecule antagonists of the CRF-binding protein and CRF-R2 receptor complex.; type: functional; details: read-out: IC50_Mean
[6] = biological target: T3, DNA repair protein RAD52 homolog (Homo sapiens, UniProt P43351); type: functional, biochemical
T3 sequence (P43351 whole entry): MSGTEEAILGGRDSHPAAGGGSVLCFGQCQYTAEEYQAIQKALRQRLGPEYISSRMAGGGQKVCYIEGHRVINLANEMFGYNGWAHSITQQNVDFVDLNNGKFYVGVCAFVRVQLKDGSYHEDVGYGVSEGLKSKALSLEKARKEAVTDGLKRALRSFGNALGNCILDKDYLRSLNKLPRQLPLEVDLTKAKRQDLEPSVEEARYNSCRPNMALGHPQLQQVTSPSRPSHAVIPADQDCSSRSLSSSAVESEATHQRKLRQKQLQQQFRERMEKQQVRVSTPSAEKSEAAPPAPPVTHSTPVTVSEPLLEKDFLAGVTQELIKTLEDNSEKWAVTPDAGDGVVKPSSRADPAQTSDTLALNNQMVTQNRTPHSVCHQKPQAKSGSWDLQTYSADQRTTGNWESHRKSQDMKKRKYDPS

[7] = biological target: T4, RNA-binding protein pos-1 (Caenorhabditis elegans, UniProt G5EF15); assay: inhibitors of POS-1/mex-3 RNA binding, dose response, biochemical, fluorescence polarization (AID 1964);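 further: purified POS-1 fused to maltose binding protein made in E. coli; potency of compounds blocking POS-1 binding to fluorescent RNA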
T4 sequence (G5EF15 whole entry): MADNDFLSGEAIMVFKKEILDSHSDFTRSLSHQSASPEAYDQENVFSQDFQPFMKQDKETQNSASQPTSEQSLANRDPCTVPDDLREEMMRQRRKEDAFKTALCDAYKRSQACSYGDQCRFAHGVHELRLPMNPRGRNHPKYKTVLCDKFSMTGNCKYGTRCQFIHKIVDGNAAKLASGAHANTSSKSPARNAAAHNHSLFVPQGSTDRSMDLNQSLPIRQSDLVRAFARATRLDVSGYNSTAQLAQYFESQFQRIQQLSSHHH

[8] = biological target: T5, Zinc finger protein mex-5 (Caenorhabditis elegans, UniProt Q9XUB2); assay: MEX-5/TCR-2 RNA interaction inhibitors, dose response, biochemical, C. elegans, fluorescence polarization (AID 1960)
T5 sequence (Q9XUB2 whole entry): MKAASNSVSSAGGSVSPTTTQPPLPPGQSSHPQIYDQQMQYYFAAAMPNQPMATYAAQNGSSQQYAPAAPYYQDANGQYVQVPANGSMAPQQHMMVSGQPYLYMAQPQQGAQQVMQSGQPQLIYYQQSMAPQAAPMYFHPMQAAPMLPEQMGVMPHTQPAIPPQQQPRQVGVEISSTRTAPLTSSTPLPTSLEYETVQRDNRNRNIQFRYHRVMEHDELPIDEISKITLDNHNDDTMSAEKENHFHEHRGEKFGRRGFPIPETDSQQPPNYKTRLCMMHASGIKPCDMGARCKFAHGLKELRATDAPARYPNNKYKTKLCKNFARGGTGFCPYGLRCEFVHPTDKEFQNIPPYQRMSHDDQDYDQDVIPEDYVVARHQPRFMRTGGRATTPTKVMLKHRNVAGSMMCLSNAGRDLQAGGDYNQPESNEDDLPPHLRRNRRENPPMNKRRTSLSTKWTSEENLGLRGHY

[9] = biological target: T6, Endoribonuclease toxin MazF (Escherichia coli K-12, UniProt P0AE70); assay: fluorescent RNA oligo signal without MazF, dose response, counter-screen for MazEF activator project, biochemical, fluorescence, single-stranded RNase substrate (AID 588502); type: functional
T6 sequence (P0AE70 whole entry): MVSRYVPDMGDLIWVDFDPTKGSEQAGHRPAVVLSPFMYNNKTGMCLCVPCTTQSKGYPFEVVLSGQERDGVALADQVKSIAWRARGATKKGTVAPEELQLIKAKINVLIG

[10] = biological target: T6, Endoribonuclease toxin MazF; assay: MazF toxin RNase activators, dose response, biochemical, fluorescence, single-stranded RNA substrate, uHTS hits (AID 588481); type: functional
[11] = Luminescence Cell-Based Dose Retest to Confirm Inhibitors of Cancer Stem Cells. [Related pubchem assays (depositor defined):AID2717, AID2721]; type: functional; details: Homo sapiens
[12] = test system: H9c2; assay: cells; type: functional, cell-based; details: Rattus norvegicus, H9c2, Myocardium;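 further: confirmatory concentration-response retest of ultra-high-throughput screening hits for modulation of myocardial damage; cell death induced by hydrogen peroxide oxidative stress; compound pretreatment for 60 min then peroxide exposure for 2 h; potency is for protecting the cells against peroxide damage rather than for killing them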
[13] = non-specific cell cytotoxicity, dose response, cytotoxicity control for PAX8 inhibitor project, plate reader, dry powder samples (AID 743021); type: functional, cell-based
[14] = biological target: T7, Streptokinase A (Streptococcus pyogenes serotype M1, UniProt P10520); assay: S. pyogenes streptokinase expression inhibitors, potency, dose response, plasminogen activation absorbance, OD405 (AID 1914); type: functional, Streptococcus pyogenes M1 GAS;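 further: secreted streptokinase activity via plasminogen activation per viability signal from cell pellet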
T7 sequence (P10520 whole entry): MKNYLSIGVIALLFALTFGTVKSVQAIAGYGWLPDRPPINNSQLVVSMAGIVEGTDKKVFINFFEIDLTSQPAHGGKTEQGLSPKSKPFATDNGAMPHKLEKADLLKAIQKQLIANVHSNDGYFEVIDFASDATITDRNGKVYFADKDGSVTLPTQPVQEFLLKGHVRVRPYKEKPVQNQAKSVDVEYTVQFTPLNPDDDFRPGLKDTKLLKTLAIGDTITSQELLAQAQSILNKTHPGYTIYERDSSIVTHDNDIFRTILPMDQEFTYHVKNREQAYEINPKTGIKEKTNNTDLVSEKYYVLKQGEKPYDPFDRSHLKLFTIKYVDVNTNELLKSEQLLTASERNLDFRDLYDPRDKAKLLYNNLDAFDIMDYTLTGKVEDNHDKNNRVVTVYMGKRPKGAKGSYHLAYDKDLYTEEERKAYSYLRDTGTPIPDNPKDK

[15] = test system: Streptococcus sp. 'group A'; assay: growth inhibition of control SK(-) GAS strain, dose response, counter-screen for streptokinase expression inhibitor project, luminescence, kanamycin, BacTiterGlo, confirmation (AID 1900); type: functional, organism-based
[16] = biological target: Paired box protein Pax-8 (Homo sapiens, UniProt Q06710); assay: inhibitors of PAX8-driven TPO luciferase reporter, dose response, RMG-I cells, cherry-pick (AID 687027); type: functional, cell-based;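 further: luciferase reporter driven by Pax8 target thyroperoxidase promoter measured by SteadyGlo luminescence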
Paired box protein Pax-8, sequence (Q06710 whole entry): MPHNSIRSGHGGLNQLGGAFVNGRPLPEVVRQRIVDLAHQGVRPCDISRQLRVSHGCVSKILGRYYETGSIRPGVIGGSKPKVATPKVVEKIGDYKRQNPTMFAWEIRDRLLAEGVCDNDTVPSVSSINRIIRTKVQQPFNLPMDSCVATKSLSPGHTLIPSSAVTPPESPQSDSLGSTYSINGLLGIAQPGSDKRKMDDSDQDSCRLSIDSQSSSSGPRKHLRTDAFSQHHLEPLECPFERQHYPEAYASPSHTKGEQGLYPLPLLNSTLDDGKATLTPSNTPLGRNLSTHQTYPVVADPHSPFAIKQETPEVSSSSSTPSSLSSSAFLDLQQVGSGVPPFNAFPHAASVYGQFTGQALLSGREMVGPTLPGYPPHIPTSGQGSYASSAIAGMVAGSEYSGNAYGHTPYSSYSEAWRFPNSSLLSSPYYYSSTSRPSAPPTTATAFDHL

[17] = test system: Streptococcus; assay: Group A Streptococcus viability loss, dose response, counter-screen for streptokinase expression inhibitor project, luminescence, BacTiterGlo (AID 1915); type: functional, organism-based;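 further: potency for reduction of bacterial viability or growth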
[18] = biological target: Induced myeloid leukemia cell differentiation protein Mcl-1 (Homo sapiens, UniProt Q07820); type: functional
Induced myeloid leukemia cell differentiation protein Mcl-1, sequence (Q07820 whole entry): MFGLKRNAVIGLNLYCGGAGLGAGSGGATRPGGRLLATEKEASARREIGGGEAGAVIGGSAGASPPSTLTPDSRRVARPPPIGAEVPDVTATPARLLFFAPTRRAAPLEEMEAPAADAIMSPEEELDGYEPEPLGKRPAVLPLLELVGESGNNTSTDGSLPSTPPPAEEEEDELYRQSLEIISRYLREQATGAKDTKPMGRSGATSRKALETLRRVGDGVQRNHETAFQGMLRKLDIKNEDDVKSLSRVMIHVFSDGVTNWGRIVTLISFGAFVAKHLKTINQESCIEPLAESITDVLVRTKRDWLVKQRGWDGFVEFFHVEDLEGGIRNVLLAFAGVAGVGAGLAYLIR

[19] = biological target: T8, Histone-lysine N-methyltransferase NSD2 (Homo sapiens, UniProt O96028); type: biochemical
T8 sequence (O96028 whole entry): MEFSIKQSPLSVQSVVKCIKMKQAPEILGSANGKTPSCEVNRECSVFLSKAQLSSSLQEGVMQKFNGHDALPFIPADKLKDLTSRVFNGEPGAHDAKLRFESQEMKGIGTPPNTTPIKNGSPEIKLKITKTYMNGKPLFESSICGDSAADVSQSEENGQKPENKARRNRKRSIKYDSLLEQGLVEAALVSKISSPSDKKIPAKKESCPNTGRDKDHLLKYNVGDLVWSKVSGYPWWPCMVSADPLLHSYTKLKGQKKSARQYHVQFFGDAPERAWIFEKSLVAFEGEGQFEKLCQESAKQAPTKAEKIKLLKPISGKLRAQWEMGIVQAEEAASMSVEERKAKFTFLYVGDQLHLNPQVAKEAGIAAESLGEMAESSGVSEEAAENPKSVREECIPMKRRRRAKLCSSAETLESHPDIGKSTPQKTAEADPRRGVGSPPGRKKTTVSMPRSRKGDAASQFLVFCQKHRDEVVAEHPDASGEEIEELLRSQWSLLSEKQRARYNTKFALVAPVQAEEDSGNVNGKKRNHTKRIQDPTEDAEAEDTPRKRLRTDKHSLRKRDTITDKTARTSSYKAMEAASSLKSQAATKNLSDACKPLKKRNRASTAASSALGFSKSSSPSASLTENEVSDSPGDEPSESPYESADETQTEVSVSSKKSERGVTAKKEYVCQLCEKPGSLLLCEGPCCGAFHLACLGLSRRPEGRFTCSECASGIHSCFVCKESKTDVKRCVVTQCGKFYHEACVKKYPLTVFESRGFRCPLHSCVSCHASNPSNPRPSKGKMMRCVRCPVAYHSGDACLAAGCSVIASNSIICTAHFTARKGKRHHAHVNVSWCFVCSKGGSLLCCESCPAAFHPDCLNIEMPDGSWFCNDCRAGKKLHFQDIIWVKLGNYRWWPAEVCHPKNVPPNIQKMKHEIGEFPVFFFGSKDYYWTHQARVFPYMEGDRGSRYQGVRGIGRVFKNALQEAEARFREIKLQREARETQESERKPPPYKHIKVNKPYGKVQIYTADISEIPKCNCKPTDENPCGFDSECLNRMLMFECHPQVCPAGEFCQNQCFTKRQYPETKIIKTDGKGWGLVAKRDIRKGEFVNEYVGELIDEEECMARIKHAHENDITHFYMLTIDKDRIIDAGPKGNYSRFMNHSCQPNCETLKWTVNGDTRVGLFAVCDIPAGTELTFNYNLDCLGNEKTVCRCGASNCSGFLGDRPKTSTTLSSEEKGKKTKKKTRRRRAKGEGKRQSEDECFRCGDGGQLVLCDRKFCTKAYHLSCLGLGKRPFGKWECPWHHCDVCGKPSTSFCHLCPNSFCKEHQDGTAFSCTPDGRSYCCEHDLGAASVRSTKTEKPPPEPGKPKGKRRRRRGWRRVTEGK

COc1ccccc1Oc1c(C)oc2c(CN(C)C)c(O)ccc2c1=O
Ki [1]: > 66.7 µM (inactive)

COc1ccc(OC)c(C2C(C(=O)c3ccco3)=C(O)C(=O)N2CCCN2CCOCC2)c1 (stereo not given)
Ki [1]: 26.4 µM (inactive)

Cc1nc2c(C)cccn2c1C(=O)C1=C(O)C(=O)N(CCN2CCOCC2)C1c1cccs1 (stereo not given)
AC50 [2]: 10 µM (inconclusive) | Ki [1]: > 66.7 µM (inactive) | AC50 [3]: 8.91 µM (inconclusive)

COc1cc(C2C(C(=O)c3ccco3)=C(O)C(=O)N2c2cc(C)on2)cc(Br)c1O (stereo not given)
EC50 [4]: > 53 µM (inactive) | Ki [1]: 47.7 µM (inactive) | IC50 [5]: > 47.1 µM (inactive)

CSc1nc(NCCCN(C)C)c2c3c(sc2n1)CN(C)CC3
AC50 [6]: 10.1 µM (active)

Cn1cc(C=C2C(=O)NC(=O)NC2=O)c2ccccc21
EC50 [4]: 24.1 µM (active) | EC50 [7]: 6.99 µM (inconclusive) | EC50 [8]: 5.82 µM (inconclusive) | EC50 [9]: 21.1 µM (inactive) | EC50 [10]: > 99 µM (inactive)

COCCN=C(S)Nc1ccc2nc(N3CCN(C)CC3)cc(C)c2c1
AC50 [6]: 13.2 µM (active)

O=C(Nc1cccc(NC(=O)c2ccc([N+](=O)[O-])o2)c1)c1ccco1
AC50 [11]: 2.95 µM (active) | IC50 [12]: > 79 µM (inactive) | AC50 [13]: 66.2 µM (active) | EC50 [14]: 111 µM (active) | EC50 [15]: 7.34 µM (active) | AC50 [16]: 5.2 µM (active) | EC50 [17]: 22.7 µM (active)

COC(=O)c1[nH]c2ccccc2c1/C=C1\C(=O)NC(=O)N(c2ccc(Br)cc2)C1=O
IC50 [18]: 9.03 µM (active) | AC50 [19]: > 20 µM (inactive)

CCOC(=O)N1CCC(NC(=O)c2cc(C(=O)Nc3ccc(OC)c(OC)c3)ccc2CO)CC1
Ki [1]: > 66.7 µM (inactive)

CC1=CC(=C2N=C(c3ccccc3)OC2=O)C=C(C)O1
EC50 [7]: 142 µM (inconclusive) | EC50 [8]: 12.3 µM (inconclusive) | EC50 [9]: > 99 µM (inactive) | EC50 [10]: > 99 µM (inactive)

O=C(NCC1CC1)c1ccc(-n2ccnc2)c2ccoc12
AC50 [19]: 14.1 µM (active)
